Data published in patent publication US20240018132A1, “5-HYDROXY-1,4-NAPHTHALENEDIONE FOR USE IN THE TREATMENT OF CANCER” (GODAVARI BIOREFINERIES LIMITED, priority 2020, published 2024).

How the values were obtained:
[1] = tested on: MDAMB231; assay: In vitro sphere-forming assay (cancer stem cells), Mammosphere media; conditions: for 3D sphere count of MDAMB231: Mammosphere media, 2000 cells/well, n = 6 ± S.D
[2] = tested on: Human lymphocytes; assay: Lymphocyte assay (MTT on normal cells); assay type: cell-based; conditions: human peripheral blood lymphocytes, MTT procedure; for IC50: Lymphocyte
Procedure, shortened: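 Lymphocytes from human peripheral blood isolated by density-gradient centrifugation on HiSep LSM 1077, washed in D.P.B.S; only cells with purity and viability above 95% used. Seeded at 0.7 million/ml and assessed by MTT.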

[3] = Homo sapiens, MDA-MB-231, read-out: % Viability of spheres (MDAMB231)

Structure (SMILES) | viability at 0.025 µM [1, 3] | viability at 0.25 µM [1, 3] | viability at 2.5 µM [1, 3] | viability at 25 µM [1, 3] | viability at 250 µM [1, 3] | 3D sphere count of MDAMB231 ([1]; drug 0.025 uM) | 3D sphere count of MDAMB231 ([1]; drug 0.25 uM) | 3D sphere count of MDAMB231 ([1]; drug 2.5 uM) | 3D sphere count of MDAMB231 ([1]; drug 25 uM) | 3D sphere count of MDAMB231 ([1]; drug 250 uM) | IC50 [2] | viability at 0.0025 µM [1, 3] | 3D sphere count of MDAMB231 ([1]; drug 0.0025 uM) | Activity on Lymphocytes (IC50) [2]
O=C1C(c2ccc3c(c2)OCO3)=CC(=O)c2c(OCCCCN3CCOCC3)cccc21 [Formula 2, 5-(4-morpholinobutoxy)-2-(benzo[d][1,3]dioxol-6-yl)naphthalene-1,4-dione] | 84% | 66% | 46% | 30% | 14% | 65(±5) | 51(±3) | 36(±3) | 23(±3) | 11(±3) | 11.5 µM | – | – | –
COc1ccc(NC2=CC(=O)c3c(OCCN4CCOCC4)cccc3C2=O)cc1OC [Formula 40, 5-(2-morpholinoethoxy)-2-(3,4-dimethoxyphenylamino) naphthalene-1,4-dione] | 56% | 41 ± 4% | 27% | 10% | – | 43(±3) | 32(±4) | 21(±3) | 8(±2) | – | 13.2 µM | 78% | 60(±3) | –
O=C1C(NC2CCCCC2)=CC(=O)c2c(OCCN3CCOCC3)cccc21 [Formula 52] | 50% | 45% | 38% | 26% | – | 55(±7) | 43(±3) | 34(±4) | 24(±3) | – | – | 62% | 69(±3) | No activity
